Assays:
[1] = system: LPS-induced neutrophil accumulation in BALF; experiment: LPS-induced neutrophilia in the mouse: duration of action; format: in vivo; conditions: intra tracheal dosing, 12 or more hours of pre-dosing, BALF 8 h after LPS
Description: Non-fasted mice were dosed by the intra tracheal route with either vehicle, or the test substance at the time points (“pre-dose”) indicated with respect to the start of LPS treatment. At T=0, mice were placed into an exposure chamber and exposed to LPS. Eight hours after LPS challenge, animals were under anesthetized, the trachea cannulated and BALF extracted by infusing and withdrawing 1 ml of PBS into the lungs via a tracheal catheter. Total and differential white cell counts in the BALF samples were measured using a Neubaur haemocytometer. Cytospin smears of the BALF samples were prepared by centrifugation at 200 rpm for 5 min at room temperature and stained using a DiffQuik stain system (Dade Behring). Cells were counted using oil immersion microscopy.
Data for neutrophil numbers is reported as total and differential number (test substance relative to vehicle) of cells per mL of BALF, mean±S.E.M. (n=8).

[2] = system: differentiated U937 cells; experiment: MTT assay in differentiated U937 cells; format: cell-based, human; design: key: Negative: no significant toxic effect observed in MTT assay
Description: Differentiated U937 cells were pre-incubated with compound for 4 hrs in 5% FCS or 10% FCS for 24 hrs and 72 hr. […] After 1 hr incubation, the media were removed, 200 ul of DMSO added to each well and the plates were shaken lightly for 1 h prior to reading the absorbance at 550 nm. The percentage loss of cell viability was calculated for each well relative to vehicle (0.5% DMSO)-treatment. Consequently an apparent increase in cell viability for drug treatment relative to vehicle is tabulated as a negative percentage.

COCC(=O)Nc1cc(COc2ccc(NC(=O)Nc3cc(C(C)(C)C)nn3-c3ccc(C)cc3)c3ccccc23)ccn1 [Example 1, N-(4-((4-(3-(3-tert-Butyl-1-p-tolyl-1H-pyrazol-5-yl)ureido)naphthalen-1-yloxy)methyl)pyridin-2-yl)-2-methoxyacetamide] was tested. Which “inhibition of LPS-induced neutrophil accumulation” value [1] did it give?
Its value is “significant inhibition”.

What about the “Differentiated U937 cells MTT Assay 4, 24 h (10 μg/ml)” value [2] of the same molecule?
Its value is “Negative^2”.

Reference: US8975285B2, “P38 MAP kinase inhibitors” (Respivert Ltd., priority 2008, dated 2015)
